From patent US8541598B2, “Biodegradable solvents for the chemical industry” (Dublin City University, priority 2007, dated 2013) come the findings set out here.

For orientation: MIC means the smallest concentration in the dilution series that meets the test's criterion for growth inhibition.

Data set [1] in a line: Antimicrobial activity / minimum inhibitory concentrations on seven strains of bacteria. The format is cell-based. Conditions: read-out: MIC values. As for the experimental part:
(§1) Seven strains of bacteria were used in the assessment of the antimicrobial activity of the ILs claimed: 4 gram negative and three gram positive as shown below.
(§2) A wide concentration range was tested (0-20000 μg/ml). The concentrations screened for antibacterial activity are generally from 2 μg/ml to 1000 μg/ml (Table 6). […] The concentration range screened for the ILs containing ethers was up to 20000 μg/ml. At these high concentrations a lack of antibacterial activity is a significant result.

Data set [2] deals with Pseudomonas aeruginosa, Escherichia coli, Klebsiella sp., Salmonella sp., Staphylococcus aureus, Enterococcus sp., Bacillus subtilis. Described as above. Conditions: for toxicity / antibacterial activity in words: seven strains of bacteria; for MIC values: seven strains, not split, range tested 0-20000 μg/ml. The class given is cell-based. As for the experimental part:
as §1, §2

Setting [3] is: seven strains, not split, range tested 0-20000 μg/ml.

“Also recorded” adds a separate entry of the source. Where two headings read alike, the source gives them in different places. A value given as a limit tells only on which side of the number the result lay.

`CCOCCOCCOC(=O)C[n+]1ccn(C)c1` [KG41, 3-methyl-1-(2-[2-ethoxyethoxy]ethoxycarbonylmethyl)imidazolium octylsulfate]: the MIC in data set [1] stood at 10 mg/mL. Moreover, the “toxicity / antibacterial activity in words” value in data set [2] is recorded as “non-toxic”.

As for `CCCCOCCOCCOC(=O)Cn1cc[n+](C)c1.[Br-]` [KG15, 3-methyl-1-(2-[2-butoxyethoxy]ethoxycarbonylmethyl)imidazolium bromide], in data set [1] (setting [3]), the MIC is > 20 mg/mL. Also, the “toxicity / antibacterial activity in words” value was “non-toxic” in data set [2] and “low toxicity” in data set [2] (listed as KG 15).

Regarding `CC(C)OCCOC(=O)Cn1cc[n+](C)c1.[Br-]` [KG9, 3-methyl-1-(2-[2-propoxy]ethoxycarbonylmethyl)imidazolium bromide], in data set [1] (setting [3]), the MIC is > 20 mg/mL. Further, the “toxicity / antibacterial activity in words” value in data set [2] is listed as “non-toxic”.

Turning to `CCCCCOC(=O)C[n+]1ccn(C)c1` [KG35, 3-methyl-1-(pentoxycarbonylmethyl)imidazolium octylsulfate], the MIC in data set [1] (setting [3]) was > 20 mg/mL. In addition, the “toxicity / antibacterial activity in words” value in data set [2] is “non-toxic”.

In the case of `CCC(C)OCCOC(=O)Cn1cc[n+](C)c1.[Br-]` (stereo not shown) [KG10, 3-methyl-1-(2-[2-butoxy]ethoxycarbonylmethyl)imidazolium bromide], the MIC in data set [1] (setting [3]) is > 20 mg/mL. In addition, the “toxicity / antibacterial activity in words” value in data set [2] is recorded as “non-toxic”.

As to `CCCCOCCOC(=O)C[n+]1ccn(C)c1` [KG39, 3-methyl-1-(2-[2-butoxy]ethoxycarbonylmethyl)imidazolium octylsulfate], the MIC in data set [1] (setting [3]) was > 20 mg/mL. In addition, the “toxicity / antibacterial activity in words” value in data set [2] is reported as “non-toxic”.

Take `CCOCCOC(=O)Cn1cc[n+](C)c1.[Br-]` [KG8, 3-methyl-1-(2-[2-ethoxy]ethoxycarbonylmethyl)imidazolium bromide]: in data set [1] (setting [3]), the MIC is > 20 mg/mL. In addition, the “toxicity / antibacterial activity in words” value in data set [2] was “non-toxic”.

As for `CCOCCOC(=O)C[n+]1ccn(C)c1` [KG37, 3-methyl-1-(2-[2-ethoxy]ethoxycarbonylmethyl)imidazolium octylsulfate], the MIC in data set [1] (setting [3]) is > 20 mg/mL. The “toxicity / antibacterial activity in words” value in data set [2] was “non-toxic”.

With `COCCOCCOC(=O)C[n+]1ccn(C)c1C` [KG45, 2,3-dimethyl-1-(2-[2-methoxyethoxy]ethoxycarbonylmethyl)imidazolium octylsulfate], the MIC in data set [1] stood at 10 mg/mL. For the same compound, in data set [2], the “toxicity / antibacterial activity in words” value is “non-toxic”.

On to `CCCCOC(=O)C[n+]1ccn(C)c1` [KG34, 3-methyl-1-(butoxycarbonylmethyl)imidazolium octylsulfate], for which, in data set [1] (setting [3]), the MIC came to 5 mg/mL. The “toxicity / antibacterial activity in words” value in data set [2] is “non-toxic”.

Take `CCCCOCCOCCOC(=O)C[n+]1ccn(C)c1` [KG43, 3-methyl-1-(2-[2-butoxyethoxy]ethoxycarbonylmethyl)imidazolium octylsulfate]: in data set [1] (setting [3]), the MIC came out at 10 mg/mL. For the same compound, the “toxicity / antibacterial activity in words” value in data set [2] is listed as “non-toxic”.

For `CCCOCCOCCOC(=O)Cn1cc[n+](C)c1.[Br-]` [KG14, 3-methyl-1-(2-[2-propoxyethoxy]ethoxycarbonylmethyl)imidazolium bromide], the MIC in data set [1] (setting [3]) is > 20 mg/mL. The “toxicity / antibacterial activity in words” value in data set [2] is “non-toxic”.

On to `CCOCCOCCOC(=O)Cn1cc[n+](C)c1.[Br-]` [KG13, 3-methyl-1-(2-[2-ethoxyethoxy]ethoxycarbonylmethyl)imidazolium bromide], for which, in data set [1], the MIC is > 20 mg/mL. The “toxicity / antibacterial activity in words” value in data set [2] is “non-toxic”.

`CCCOCCOC(=O)C[n+]1ccn(C)c1` [KG38, 3-methyl-1-(2-[2-propoxy]ethoxycarbonylmethyl)imidazolium octylsulfate]: the minimum inhibitory concentration (MIC) in data set [1] (setting [3]) is > 20 mg/mL. Moreover, the “toxicity / antibacterial activity in words” value in data set [2] is listed as “non-toxic”.

For `Cc1n(C)cc[n+]1CC(=O)N1CCCC1` [KG404, 2,3-dimethyl-1-(pyrrolidinylcarbonylmethyl)imidazolium octylsulfate, reference compound], the MIC in data set [1] (setting [3]) is > 20 mg/mL.

Turning to `COCCOC(=O)Cn1cc[n+](C)c1.N#C[N-]C#N` [KG75, 3-methyl-1-(2-[2-methoxy]ethoxycarbonylmethyl)imidazolium N(CN)2], in data set [2], the “toxicity / antibacterial activity in words” value was “non-toxic” and the MIC values is >20000 KG75 μg/ml.

Consider “3-methyl-1-(2-[2-butoxyethoxy]ethoxycarbonylmethyl)imidazolium BF4 [KG69]”, for which, in data set [2], the “toxicity / antibacterial activity in words” value was “non-toxic” and the MIC values is recorded as >20000 KG69 μg/ml.

With `COC(C)N(C(=O)Cn1cc[n+](C)c1)C(C)OC.[Br-]` (stereo not shown) [KG407, (3-methyl-1-[bis-1-methoxyethyl]carbamylmethyl)imidazolium bromide], in data set [2], the “toxicity / antibacterial activity in words” value was “low toxicity; also recorded: non-toxic” and the MIC values is given as >20000 KG407 μg/ml.

For `CCCCOC(=O)Cn1cc[n+](C)c1.N#C[N-]C#N` [KG73, 3-Methyl-1-(butoxycarbonylmethyl) imidazolium N(CN)2^−], the MIC values in data set [2] is listed as 5000 KG73 μg/ml.

“2,3-dimethyl-1-(2-[2-butoxy]ethoxycarbonylmethyl)imidazolium BF4 [KG71]”: in data set [2], the “toxicity / antibacterial activity in words” value is “non-toxic” and the MIC values is >20000 KG71 μg/ml.

`CCOCCOC(=O)C[n+]1ccn(C)c1.O=S(=O)([N-]S(=O)(=O)C(F)(F)F)C(F)(F)F` [KG50, 3-methyl-1-(2-[2-ethoxy]ethoxycarbonylmethyl)imidazolium NTf2]: in data set [2], the “toxicity / antibacterial activity in words” value is “non-toxic” and the MIC values is given as >20000 KG50 μg/ml.

On to “3-methyl-1-(2-[2-propoxyethoxy]ethoxycarbonylmethyl)imidazolium PF6 [KG29]”, for which, in data set [2], the “toxicity / antibacterial activity in words” value was “non-toxic” and the MIC values was >20000 KG29 μg/ml.

“3-methyl-1-(2-[2-propoxyethoxy]ethoxycarbonylmethyl)imidazolium BF4 [KG68]”: in data set [2], the “toxicity / antibacterial activity in words” value was “non-toxic” and the MIC values is recorded as >20000 KG68 μg/ml.

For `CCCOCCOC(=O)Cn1cc[n+](C)c1.O=S(=O)([N-]S(=O)(=O)C(F)(F)F)C(F)(F)F` [KG51, 3-methyl-1-(2-[2-propoxy]ethoxycarbonylmethyl)imidazolium NTf2], in data set [2], the “toxicity / antibacterial activity in words” value was “non-toxic” and the MIC values amounted to 10000 KG51 μg/ml.

Consider `CCCOCCOC(=O)C[n+]1ccn(C)c1.N#C[N-]C#N` [KG77, 3-methyl-1-(2-[2-propoxy]ethoxycarbonylmethyl)imidazolium N(CN)2], for which, in data set [2], the “toxicity / antibacterial activity in words” value is recorded as “non-toxic” and the MIC values is on record as >20000 KG77 μg/ml.

Consider `Cn1cc[n+](CC(=O)N2CCCC2)c1` [KG403, 3-methyl-1-(pyrrolidinylcarbonylmethyl)imidazolium octylsulfate, reference compound], for which the MIC in data set [1] (setting [3]) is > 20 mg/mL.

For “3-methyl-1-(2-[2-ethoxyethoxy]ethoxycarbonylmethyl)imidazolium BF4 [KG67]”, in data set [2], the “toxicity / antibacterial activity in words” value is on record as “non-toxic” and the MIC values is given as >20000 KG67 μg/ml.

`COCCOCCOC(=O)Cn1cc[n+](C)c1.O=S(=O)([N-]S(=O)(=O)C(F)(F)F)C(F)(F)F` [KG53, 3-methyl-1-(2-[2-methoxyethoxy]ethoxycarbonylmethyl)imidazolium NTf2]: in data set [2], the “toxicity / antibacterial activity in words” value is on record as “non-toxic” and the MIC values was 10000 KG53 μg/ml.

Regarding `CCCOCCOCCOC(=O)C[n+]1ccn(C)c1.O=S(=O)([N-]S(=O)(=O)C(F)(F)F)C(F)(F)F` [KG55, 3-methyl-1-(2-[2-propoxyethoxy]ethoxycarbonylmethyl)imidazolium NTf2], in data set [2], the “toxicity / antibacterial activity in words” value is on record as “non-toxic” and the MIC values was >20000 KG55 μg/ml.

With `CCC(NC(=O)Cn1cc[n+](C)c1)OC.[Br-]` (stereo not shown) [KG423, (3-methyl-1-[1-methoxypropyl]carbamylmethyl)imidazolium bromide], in data set [2], the “toxicity / antibacterial activity in words” value was “low toxicity” and the MIC values is recorded as >20000 KG423 μg/ml.

For the compound `COC(C)NC(=O)C[n+]1ccn(C)c1.[Br-]` (stereo not shown) [KG422, (3-methyl-1-[1-methoxyethyl]carbamylmethyl)imidazolium bromide], in data set [2], the “toxicity / antibacterial activity in words” value is given as “low toxicity; also recorded: non-toxic” and the MIC values is >20000 KG422 μg/ml.

For `CCCCOCCOC(=O)Cn1cc[n+](C)c1.O=S(=O)([N-]S(=O)(=O)C(F)(F)F)C(F)(F)F` [KG52, 3-methyl-1-(2-[2-butoxy]ethoxycarbonylmethyl)imidazolium NTf2], in data set [2], the “toxicity / antibacterial activity in words” value was “non-toxic” and the MIC values is on record as >20000 KG52 μg/ml.

With “3-methyl-1-(2-[2-butoxy]ethoxycarbonylmethyl)imidazolium PF6 [KG26]”, in data set [2], the “toxicity / antibacterial activity in words” value is given as “non-toxic” and the MIC values is recorded as >20000 KG26 μg/ml.

Consider `CCCCOC(=O)Cn1cc[n+](C)c1.[Br-]` [KG19, 3-Methyl-1-(butoxycarbonylmethyl) imidazolium bromide], for which the MIC in data set [1] (setting [3]) is > 20 mg/mL.

For the compound `CCOCCOC(=O)C[n+]1ccn(C)c1.N#C[N-]C#N` [KG76, 3-methyl-1-(2-[2-ethoxy]ethoxycarbonylmethyl)imidazolium N(CN)2], in data set [2], the “toxicity / antibacterial activity in words” value is “non-toxic” and the MIC values is >20000 KG76 μg/ml.

For `CCCCCOC(=O)Cn1cc[n+](C)c1.[Br-]` [KG17, 3-Methyl-1-(pentoxycarbonylmethyl) imidazolium bromide], the MIC in data set [1] (setting [3]) is > 20 mg/mL.

With `CCCCOCCOCCOC(=O)Cn1cc[n+](C)c1.N#C[N-]C#N` [KG82, 3-methyl-1-(2-[2-butoxyethoxy]ethoxycarbonylmethyl)imidazolium N(CN)2], in data set [2], the “toxicity / antibacterial activity in words” value is reported as “non-toxic” and the MIC values is >20000 KG82 μg/ml.
